Data set [1] deals with T1, type VI-S porcine pancreatic lipase (Sus scrofa, UniProt P00591).
T1 construct: purchased Sigma type VI-S (catalogue number not given)
T1 sequence (P00591 1-450): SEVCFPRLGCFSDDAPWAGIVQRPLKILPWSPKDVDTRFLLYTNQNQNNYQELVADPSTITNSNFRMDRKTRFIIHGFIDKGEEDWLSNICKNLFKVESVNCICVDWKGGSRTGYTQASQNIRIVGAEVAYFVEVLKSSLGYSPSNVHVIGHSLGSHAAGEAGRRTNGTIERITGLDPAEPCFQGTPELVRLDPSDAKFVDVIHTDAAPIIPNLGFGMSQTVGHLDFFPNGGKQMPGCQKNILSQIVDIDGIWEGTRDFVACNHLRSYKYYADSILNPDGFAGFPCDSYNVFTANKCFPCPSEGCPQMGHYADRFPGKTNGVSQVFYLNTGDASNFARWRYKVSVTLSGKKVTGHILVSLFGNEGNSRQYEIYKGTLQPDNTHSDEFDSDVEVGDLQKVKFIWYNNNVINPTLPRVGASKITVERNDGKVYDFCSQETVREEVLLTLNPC
Description: Pancreatic lipase assay (pH-stat titration, triolein substrate). As to conditions: for k / Ymax: 7.0 nM lipase, 700 nM inhibitor, pH 8.0; for k: k fitted for the 12.5 min after inhibitor addition, Y=Ymax*(1-exp(-k*X)); for Ymax: Ymax of the fit Y=Ymax*(1-exp(-k*X)); for inhibition at 0.7 µM: 12.5 min. The class given is biochemical. On the set-up: Ymax: unit not given here. On the procedure:
The use of a pancreatic lipase assay has been described in the literature (Hadvary, P. et al. Biochem. J. (1988) 256: 357-361; Hadvary, P. et al. Biochem. J. (1991) 266:2021-2027). Pancreatic lipase activity was measured using a 718 Stat Titrino (Brinkmann) programmed to maintain a pH of 8.0 using 0.1 N NaOH. The substrate mixture (pH 8) contained 1 mM taurochenodeoxycholate (Sigma), 9 mM taurodeoxycholate (Sigma), 0.1 mM cholesterol (Sigma), 1 mM phosphatidylcholine (Sigma), 1.5% BSA, 2 mM Tris base, 100 mM NaCl, 10 mM CaCl2, and 3% triolein (Sigma). The mixture (5 mL) was emulsified via sonication at room temperature, and added to the titration vessel with rapid stirring. The Stat Titrino was turned on and lipase (7.0 nM type VI-S porcine pancreatic lipase (Sigma) dissolved in PBS) was added to the vessel. After 10 min, inhibitor (700 nM dissolved in 100% DMSO) was added and the reaction continued for an additional 12.5 min. The k values were determined for the 12.5 min after the addition of the inhibitor using a one phase exponential association equation, Y=Ymax*(1−exp(−k*X)), k values for lipase alone were 0.0004±0.0001 sec. The k values for compounds disclosed herein are >0.0004±0.0001 sec.

Usually melting point stands for the temperature, or range, at which the solid turns liquid. `CCCCCCCCCCCCNc1nc2sc(C(=O)NCCCCCCCC)c(C)c2c(=O)o1` [Entry 24, 2-Dodecylamino-5-methyl-4-oxo-4H-thieno[2,3-d][1,3]oxazine-6-carboxylic acid octylamide] showed a melting point of 137.1 to 138 °C. Besides, the k in data set [1] is given as 1.849 10-3.s-1.
Taken in the same sequence, the figures for `CCCCCCCCCCCCCCNc1nc2sc(C(=O)NCCCCCCCC)c(C)c2c(=O)o1` [Entry 25, 5-Methyl-4-oxo-2-tetradecylamino-4H-thieno[2,3-d][1,3]oxazine-6-carboxylic acid octylamide] were 145 to 145.8 °C and 1.629 10-3.s-1.
Taken in the same sequence, the figures for `CCCCCCCCCCCCCCCCNc1nc2sc(C(=O)NCCCCCCCC)c(C)c2c(=O)o1` [Entry 26, 2-Hexadecylamino-5-methyl-4-oxo-4H-thieno[2,3-d][1,3]oxazine-6-carboxylic acid octylamide] were 146.3 to 147 °C and 1.709 10-3.s-1.
The matching figures for `CCCCCCCCNc1nc2sc(C(=O)NC)c(C)c2c(=O)o1` [Entry 31, 5-Methyl-2-octylamino-4-oxo-4H-thieno[2,3-d][1,3]oxazine-6-carboxylic acid methylamide]: 152.5 to 158 °C and 0.777 10-3.s-1.
`CCCCCCCCNc1nc2sc(C(=O)NCc3cccnc3)c(C)c2c(=O)o1` [Entry 35, 5-Methyl-2-octylamino-4-oxo-4H-thieno[2,3-d][1,3]oxazine-6-carboxylic acid (pyridin-3-ylmethyl)amide] displayed a melting point of 148 to 150 °C. In addition, the k in data set [1] is listed as 1.544 10-3.s-1.
For the compound `CCCCCCCCNC(=O)Nc1sc(C(=O)N2CCN(Cc3ccccc3)CC2)c(C)c1C(=O)O` [Entry 37, 5-(4-Benzyl-piperazine-1-carbonyl)-4-methyl-2-(3-octyl-ureido)-thiophene-3-carboxylic acid], the melting point is 193.5 to 195 °C (dec.). For the same compound, in data set [1], the Ymax stood at 0.211 and the k is reported as 0.574 10-3.s-1.
Taken in the same sequence, the figures for `CCCCCCCCNc1nc2sc(C(=O)OC(CCCC)CCCC)c(C)c2c(=O)o1` [Entry 39, 5-Methyl-2-octylamino-4-oxo-4H-thieno[2,3-d][1,3]oxazine-6-carboxylic acid 1-butyl-pentyl ester] were 90 to 92 °C, 0.156 and 1.253 10-3.s-1.
For `CCCCCCCCNc1nc2sc(C(=O)N(CCCCCCCC)CCCCCCCC)c(C)c2c(=O)o1` [Entry 41, 5-Methyl-2-octylamino-4-oxo-4H-thieno[2,3-d][1,3]oxazine-6-carboxylic acid dioctylamide], the melting point is 48 to 50 °C. Also, in data set [1], the Ymax is given as 0.130 and the k is listed as 1.050 10-3.s-1.
`CCCCCCCCNc1nc2sc(C(=O)N(CCCCCC)CCCCCC)c(C)c2c(=O)o1` [Entry 42, 5-Methyl-2-octylamino-4-oxo-4H-thieno[2,3-d][1,3]oxazine-6-carboxylic acid dihexylamide] yielded a melting point of 42 to 45 °C. Besides, in data set [1], the Ymax is 0.124 and the k was 1.123 10-3.s-1.
`CCCCCCCCNc1nc2sc(C(=O)N3CCC(Cc4ccccc4)CC3)c(C)c2c(=O)o1` [Entry 43, 6-(4-Benzyl-piperidine-1-carbonyl)-5-methyl-2-octylamino-thieno[2,3-d][1,3]oxazin-4-one] yielded a melting point of 100 to 106 °C. In data set [1], the k is on record as 0.009 10-3.s-1.
Taken in the same sequence, the figures for `CCCCCCCCNc1nc2sc(C(=O)NCC(=O)OCc3ccccc3)c(C)c2c(=O)o1` [Entry 48, [(5-Methyl-2-octylamino-4-oxo-4H-thieno[2,3-d][1,3]oxazine-6-carbonyl)-amino]-acetic acid benzyl ester] were 147 to 149 °C and 0.440 10-3.s-1.
Taken in the same sequence, the figures for `CCCCCCN(C)c1nc2sc(C(=O)OCc3ccccc3)c(C)c2c(=O)o1` [Entry 57, 2-(Hexyl-methyl-amino)-5-methyl-4-oxo-4H-thieno[2,3-d][1,3]oxazine-6-carboxylic acid benzyl ester] were 86 to 88 °C and 0.070 10-3.s-1.
In the case of `CCCCCCCCNc1nc2sc(C(=O)NCC(C)(C)C)c(C)c2c(=O)o1` [Entry 58], the melting point fell in the range of 173 to 174.5 °C. For the same compound, the k in data set [1] is recorded as 0.723 10-3.s-1.
The matching figures for `CCCCC(CCCC)Nc1nc2sc(C(=O)OCc3ccccc3)c(C)c2c(=O)o1` [Entry 59, 2-(1-Butyl-pentylamino)-5-methyl-4-oxo-4H-thieno[2,3-d][1,3]oxazine-6-carboxylic acid benzyl ester]: 136 to 138 °C and 0.222 10-3.s-1.
The compound `CCCCCCCCNc1nc2sc(CCCCCCC)cc2c(=O)o1` [Entry 61, 6-Heptyl-2-octylamino-thieno[2,3-d][1,3]oxazin-4-one] had a melting point of 89 to 91 °C. For the same compound, in data set [1], the Ymax is recorded as 0.460 and the k is recorded as 0.247 10-3.s-1.
Taken in the same sequence, the figures for `CCCCCCCCNc1nc2sc(Cc3ccccc3)cc2c(=O)o1` [Entry 62, 6-Benzyl-2-octylamino-thieno[2,3-d][1,3]oxazin-4-one] were 123 to 124 °C, 1.901 and 0.103 10-3.s-1.
In the case of `CCCCCCCCNc1nc2sc(CCCC)cc2c(=O)o1` [Entry 63, 6-Butyl-2-octylamino-thieno[2,3-d][1,3]oxazin-4-one], the melting point was 93 to 94 °C. In data set [1], the Ymax was determined as 10.091 and the k was 0.074 10-3.s-1.
Taken in the same sequence, the figures for `CCCCCCCCNc1nc2sc(C(=O)N3CCc4cc(OC)c(OC)cc4C3)c(C)c2c(=O)o1` [Entry 65, 6-(6,7-Dimethoxy-3,4-dihydro-1H-isoquinoline-2-carbonyl)-5-methyl-2-octylamino-thieno(2,3-d)(1,3)oxazin-4-one] were 77 to 80 °C, 0.339 and 0.284 10-3.s-1.
Compound `CCCCCCCCNc1nc2sc(C(=O)NCc3ccc(OC)c(OC)c3)c(C)c2c(=O)o1` [Entry 66, 5-Methyl-2-octylamino-4-oxo-4H-thieno(2,3-d)(1,3)oxazine-6-carboxylic acid (2-(3,4-dimethoxy-phenyl)-methyl)-amide] displayed a melting point of 159 to 163 °C. In data set [1], the Ymax worked out at 0.118 and the k is given as 1.027 10-3.s-1.
As for `CCCCCCCCNc1nc2sc(C(=O)NCc3ccc4c(c3)OCO4)c(C)c2c(=O)o1` [Entry 69, 5-Methyl-2-octylamino-4-oxo-4H-thieno(2,3-d)(1,3)oxazine-6-carboxylic acid (2-benzo(1,3)dioxol-5-yl-methyl)-amide], the melting point lay within 149 to 152 °C. Further, in data set [1], the Ymax is reported as 0.112 and the k is 1.137 10-3.s-1.
The matching figures for `CCCCCCCCOc1nc2sc(CCCCCCC)c(C)c2c(=O)o1` [Entry 74, 6-Heptyl-5-methyl-2-octyloxy-thieno[2,3-d][1,3]oxazin-4-one]: 29 to 31 °C, 0.982 and 0.422 10-3.s-1.
What is called inhibition is how much of the control response was suppressed. As to `CCCCCCCCNc1nc2sc(C(=O)NCCCCc3ccccc3)c(C)c2c(=O)o1` [Entry 79, 5-Methyl-2-octylamino-4-oxo-4H-thieno(2,3-d)(1,3)oxazine-6-carboxylic acid (4-phenyl-butyl)-amide], the melting point was in the range of 153 to 154 °C. The compound also had an inhibition at 0.7 µM in data set [1] of 69.5%.
Consider `CCCCCCCCNc1nc2sc(C(=O)NCCCc3ccccc3)c(C)c2c(=O)o1` [Entry 80, 5-Methyl-2-octylamino-4-oxo-4H-thieno(2,3-d)(1,3)oxazine-6-carboxylic acid (3-phenyl-propyl)-amide], for which the melting point was 139 to 141 °C. For the same compound, the inhibition at 0.7 µM in data set [1] came out at 66.3%.
The matching figures for `CCCCCCCCOc1nc2sc(CCCCCCCC)c(C)c2c(=O)o1` [Entry 87]: 36 °C and 27.9%.
